In US20090048269A1 (AstraZeneca AB, priority 2007, published 2009):

Each compound was assayed against T1, human ALK5 (Homo sapiens, UniProt P36897) (assay: ALK5 Enzyme Assay 2 (fluorescence polarisation probe displacement)). Settings: read-out: EAA2: activity (μM) using Enzyme Assay 2.
T1 sequence (P36897 162-503): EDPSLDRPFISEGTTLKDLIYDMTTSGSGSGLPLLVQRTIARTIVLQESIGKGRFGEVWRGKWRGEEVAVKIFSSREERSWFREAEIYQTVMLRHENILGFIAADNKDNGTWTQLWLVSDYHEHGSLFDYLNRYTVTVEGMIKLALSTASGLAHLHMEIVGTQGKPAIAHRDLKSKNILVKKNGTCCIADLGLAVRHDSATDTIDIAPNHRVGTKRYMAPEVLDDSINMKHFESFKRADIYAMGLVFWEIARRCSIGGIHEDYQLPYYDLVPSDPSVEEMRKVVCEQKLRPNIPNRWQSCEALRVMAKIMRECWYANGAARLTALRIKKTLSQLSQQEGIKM
Assay type: binding
Parameters: 6His tagged human ALK5 (residues162-503) was grown and purified from insect cells; 6His; made in house; host or cells: insect cells
Description: The ability of a compound to bind and inhibit ALK5 can be measured by its capacity to displace a probe molecule from recombinant ALK5 in an in vitro assay. Provided the probe molecule is derivatised with a fluorescent probe or is fluorescent itself, the binding affinity can be measured using Fluorescence Polarisation (FP). […] Assay measurements were performed in 50 mM HEPES pH7.4, 10 mM MgCl2, 1 mM DTT, 0.01% CHAPS in a final assay volume of 12 μl. Briefly 6 μl of ALK5 protein, final concentration of 3 μg/mL, was added to each well of a 384 well assay plate containing 12 nL of each concentration of test compound dissolved in DMSO. 6 μL of a solution containing an ALK5 FP probe ((2Z)-3-(6-{4-[2-({4-[(6-chloro[1,3]dioxolo[4,5-b]pyridin-7-yl)amino]-5-(1-methylethoxy)quinazolin-7-yl}oxy)ethyl]piperazin-1-yl}-6-oxohexyl)-2-[(2E,4E)-5-(3-ethyl-1,1-dimethyl-6,8-disulfo-1H-benzo[e]indolium-2-yl)penta-2,4-dien-1-ylidene]-1,1-dimethyl-6-sulfo-2,3-dihydro-1H-benzo[e]indole-8-sulfonate), final concentration 50 nM, and ATP, final concentration 1 μM.
An IC50 of 0.621 µM was found for `Cc1ccc(Oc2ccnc(Nc3cccc(S(=O)(=O)Nc4ccccc4)c3)c2)c(C)n1` [Example 111, 3-{[4-(2,6-Dimethylpyridin-3-yl)oxypyridin-2-yl]amino}-N-phenylbenzenesulfonamide] in this work. An IC50 of 0.0322 µM was found for `Cc1ccc(Oc2ccnc(Nc3cccc(CN4CCN(C(C)C(N)=O)CC4)c3)c2)c(C)n1` (centres unmarked) [Example 190, 2-14-[3-({4-[(2,6-dimethylpyridin-3-yl)oxylpyridin-2-yl}amino)-benzyl]piperazin-1-yl}propanamide] in this work. An IC50 of 0.0169 µM was found for `CNS(=O)(=O)Cc1ccc(Nc2cc(Oc3cc(C)c(C)nc3-c3ccccn3)ccn2)cc1` [Example 80, 1-(4-{[4-(5,6-Dimethyl-2-pyridin-2-ylpyridin-3-yl)oxypyridin-2-yl]-amino}phenyl)-N-methylmethanesulfonamide] in this work. An IC50 of 0.292 µM was found for `Cc1ccc(Oc2ccnc(Nc3ccccc3)c2)c(C(=O)NCc2ccccc2)n1` [Example 96, 3-(2-Anilinopyridin-4-yl)oxy-N-benzyl-6-methylpyridine-2-carboxamide] in this work. An IC50 of 0.0827 µM was found for `Cc1ccc(Oc2ccnc(Nc3cccc(C(=O)N4CCN(CC(N)=O)CC4)c3)c2)c(C)n1` [Example 69, 2-[4-(3-{[4-(2,6-Dimethylpyridin-3-yl)oxypyridin-2-yl]amino}-benzoyl)piperazin-1-yl]acetamide] in this work. An IC50 of 0.0143 µM was found for `Cc1ccc(Oc2ccnc(Nc3cccc(C(=O)N4CC[C@H](S(C)(=O)=O)C4)c3)c2)c(C)n1` (single isomer, unassigned) [Example 138] in this work. An IC50 of 0.0128 µM was found for `Cc1ccc(Oc2ccnc(Nc3ccc(S(N)(=O)=O)cc3)c2)c(-c2ccco2)n1` [Example 160, 4-({4-[2-(Furan-2-yl)-6-methylpyridin-3-yl]oxypyridin-2-yl}-amino)benzenesulfonamide] in this work. An IC50 of 0.0731 µM was found for `Cc1cc(Oc2ccnc(Nc3cc(CO)cc(S(N)(=O)=O)c3)c2)c(-c2ccccn2)nc1C` [Example 87, 3-{[4-(5,6-Dimethyl-2-pyridin-2-ylpyridin-3-yl)oxypyridin-2-yl]-amino}-5-(hydroxymethyl)benzenesulfonamide] in this work. An IC50 of 0.054 µM was found for `Cc1ccc(Oc2ccnc(Nc3cccc(C(=O)NCC(N)=O)c3)c2)c(C)n1` [Example 67, N-(2-Amino-2-oxoethyl)-3-{[4-(2,6-dimethylpyridin-3-yl)-oxypyridin-2-yl]amino}benzamide] in this work. An IC50 of 0.00393 µM was found for `Cc1cc(Oc2ccnc(Nc3cccc(O)c3)c2)c(-c2ccccn2)nc1C` [Example 201, 3-{[4-(5,6-Dimethyl-2-pyridin-2-ylpyridin-3-yl)oxypyridin-2-yl]-amino}phenol] in this work. An IC50 of 0.00842 µM was found for `CC(=O)Nc1ccc(Nc2cc(Oc3cc(C)c(C)nc3-c3ccccn3)ccn2)cc1` [Example 86, N-(4-{[4-(5,6-Dimethyl-2-pyridin-2-ylpyridin-3-yl)oxypyridin-2-yl]-amino}phenyl)acetamide] in this work. An IC50 of 3.01 µM was found for `CCCCCNS(=O)(=O)c1ccc(Nc2cc(Oc3ccc(C)nc3C)ccn2)cc1` [Example 114, 4-{[4-(2,6-Dimethylpyridin-3-yl)oxypyridin-2-yl]amino}-N-pentylbenzenesulfonamide] in this work. An IC50 of 0.0262 µM was found for `Cc1ccc(Oc2ccnc(Nc3cccc(CN4CCN(C(=O)CCN)CC4)c3)c2)c(C)n1` [Example 189, 3-Amino-1-{4-[(3-{[4-(2,6-dimethylpyridin-3-yl)oxypyridin-2-yl]-amino}phenyl)methyl]piperazin-1-yl}propan-1-one] in this work. An IC50 of 0.0126 µM was found for `COc1cc(Nc2cc(Oc3ccc(C)nc3-c3ccco3)ccn2)cc(OC)c1OC` [Example 165, 4-[2-(Furan-2-yl)-6-methylpyridin-3-yloxy]-N-(3,4,5-trimethoxy-phenyl)pyridin-2-amine] in this work. An IC50 of 0.0339 µM was found for `Cc1ccc(Oc2ccnc(Nc3ccc(CC#N)cc3)c2)c(-c2ccccc2)n1` [Example 148, 2-(4-{[4-(6-Methyl-2-phenylpyridin-3-yl)oxypyridin-2-yl]-amino}phenyl)acetonitrile] in this work. An IC50 of 0.0204 µM was found for `Cc1ccc(Oc2ccnc(Nc3ccc(C(N)=O)cc3)c2)c(-c2ccco2)n1` [Example 162, 4-({4-[2-(Furan-2-yl)-6-methylpyridin-3-yl]oxypyridin-2-yl}-amino)benzamide] in this work. An IC50 of 0.088 µM was found for `Cc1ccc(Oc2ccnc(Nc3ccc(C(=O)N(C)C)cc3)c2)c(C)n1` [Example 121, 4-{[4-(2,6-Dimethylpyridin-3-yl)oxypyridin-2-yl]amino}-N,N-dimethylbenzamide] in this work. An IC50 of 0.12 µM was found for `Cc1ccc(Oc2ccnc(Nc3ccc(S(=O)(=O)NCCn4ccnc4)cc3)c2)c(C)n1` [Example 135, 4-{[4-(2,6-Dimethylpyridin-3-yl)oxypyridin-2-yl]amino}-N-(2-imidazol-1-ylethyl)benzenesulfonamide] in this work. An IC50 of 0.022 µM was found for `Cc1ccc(Oc2ccnc(Nc3cccc(C(=O)N(C4CCOCC4)C4CC4)c3)c2)c(C)n1` [Example 60, N-Cyclopropyl-3-{[4-(2,6-dimethylpyridin-3-yl)oxypyridin-2-yl]-amino}-N-(oxan-4-yl)benzamide] in this work. An IC50 of 0.119 µM was found for `Cc1ccc(Oc2ccnc(Nc3ccccc3)c2)c(C(=O)NCc2ccc[nH]2)n1` [Example 94, 3-(2-Anilinopyridin-4-yl)oxy-6-methyl-N-(1H-pyrrol-2-ylmethyl)-pyridine-2-carboxamide] in this work. An IC50 of 0.0227 µM was found for `Cc1ccc(Oc2ccnc(Nc3cccc(C(=O)N4CCC4)c3)c2)c(C)n1` [Example 61, Azetidin-1-yl-(3-{[4-(2,6-dimethylpyridin-3-yl)oxypyridin-2-yl]-amino}phenyl)methanone] in this work. An IC50 of 0.0276 µM was found for `Cc1ccc(Oc2ccnc(Nc3ccc(CC#N)cc3)c2)c(-c2ccccn2)n1` [Example 144, 2-(4-{[4-(6-Methyl-2-pyridin-2-ylpyridin-3-yl)oxypyridin-2-yl]-amino}phenyl)acetonitrile] in this work. An IC50 of 0.0108 µM was found for `Cc1cc(Oc2ccnc(Nc3cccc(C(=O)NC4CC4)c3)c2)c(-c2ccccn2)nc1C` [Example 72, N-Cyclopropyl-3-{[4-(5,6-dimethyl-2-pyridin-2-ylpyridin-3-yl)-oxypyridin-2-yl]amino}benzamide] in this work. An IC50 of 0.0454 µM was found for `Cc1ccc(Oc2ccnc(Nc3ccc(S(N)(=O)=O)cc3)c2)c(-c2ccc(F)cc2)n1` [Example 156, 4-({4-[2-(4-Fluorophenyl)-6-methylpyridin-3-yl]oxypyridin-2-yl}amino)benzenesulfonamide] in this work. An IC50 of 0.0694 µM was found for `Cc1ccc(Oc2ccnc(Nc3ccc(C(N)=O)cc3)c2)c(C)n1` [Example 92, 4-{[4-(2,6-Dimethylpyridin-3-yl)oxypyridin-2-yl]amino}benzamide] in this work. An IC50 of 0.0323 µM was found for “3-{[4-(2,6-Dimethylpyridin-3-yl)oxypyridin-2-yl]amino}-N-(1-methylpiperidin-4-yl)benzamide [Example 70]” in this work. An IC50 of 0.0061 µM was found for `Cc1cc(Oc2ccnc(Nc3ccc(C(=O)NCCCNC(=O)OC(C)(C)C)cc3)c2)c(-c2ccccn2)nc1C` [Example 197, tert-Butyl N-{3-[(4-{[4-(5,6-dimethyl-2-pyridin-2-ylpyridin-3-yl)-oxypyridin-2-yl]amino}benzoyl)amino]propyl}carbamate] in this work. An IC50 of 3.02 µM was found for `COc1cc(Nc2cc(Oc3cccnc3-c3ccccc3C(N)=O)ccn2)cc(OC)c1OC` [Example 221, 2-(3-{2-[(3,4,5-Trimethoxyphenyl)amino]pyridin-4-yl}oxypyridin-2-yl)benzamide] in this work. An IC50 of 1.42 µM was found for `CCN(CC)S(=O)(=O)c1ccc(Nc2cc(Oc3ccc(C)nc3C)ccn2)cc1` [Example 116, 4-{[4-(2,6-Dimethylpyridin-3-yl)oxypyridin-2-yl]amino}-N,N-diethylbenzenesulfonamide] in this work.
